Results as given in article PMC3274767 (2012).

How the values were obtained:
[1] = target: T1, GABAA receptor β3 subunit (α1β3 GABAAR) (Homo sapiens, UniProt P14867+P28472); experiment: [3H]muscimol radioligand filtration binding to purified receptor; conditions: cited from earlier work
T1 sequence (P28472 26-473): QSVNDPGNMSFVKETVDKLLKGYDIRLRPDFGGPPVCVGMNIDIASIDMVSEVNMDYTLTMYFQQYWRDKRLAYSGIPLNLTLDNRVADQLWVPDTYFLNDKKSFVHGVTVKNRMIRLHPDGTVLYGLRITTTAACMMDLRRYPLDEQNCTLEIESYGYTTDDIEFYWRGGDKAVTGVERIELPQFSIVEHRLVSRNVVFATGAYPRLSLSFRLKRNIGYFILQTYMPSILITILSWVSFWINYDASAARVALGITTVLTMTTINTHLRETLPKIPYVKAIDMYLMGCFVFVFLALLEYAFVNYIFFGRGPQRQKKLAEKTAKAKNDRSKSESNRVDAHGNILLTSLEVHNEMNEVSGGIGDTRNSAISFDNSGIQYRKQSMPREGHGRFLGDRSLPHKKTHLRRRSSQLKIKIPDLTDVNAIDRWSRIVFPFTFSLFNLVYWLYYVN
T1 sequence (P14867 28-456): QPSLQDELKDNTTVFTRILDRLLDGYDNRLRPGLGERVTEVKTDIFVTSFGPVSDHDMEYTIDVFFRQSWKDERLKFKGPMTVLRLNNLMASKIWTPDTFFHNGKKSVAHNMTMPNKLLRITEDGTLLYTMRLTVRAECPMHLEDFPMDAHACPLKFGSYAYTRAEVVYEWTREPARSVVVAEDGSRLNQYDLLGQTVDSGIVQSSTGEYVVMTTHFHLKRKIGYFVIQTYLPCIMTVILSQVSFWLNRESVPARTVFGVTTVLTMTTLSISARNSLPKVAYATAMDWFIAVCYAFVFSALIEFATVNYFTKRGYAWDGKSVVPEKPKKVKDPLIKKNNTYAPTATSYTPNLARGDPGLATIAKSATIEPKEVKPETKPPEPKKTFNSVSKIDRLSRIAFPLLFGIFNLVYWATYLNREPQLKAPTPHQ

[2] = target: T2, GABAA receptor α1 subunit (α1β3 GABAAR) (Homo sapiens, UniProt P14867+P28472); experiment: photoaffinity labeling with residue identification; assay type: binding
T2 sequence (P14867 28-456): T1 sequence (P14867 28-456)
T2 sequence (P28472 26-473): T1 sequence (P28472 26-473)

[3] = target: T1, GABAA receptor β3 subunit (α1β3 GABAAR); experiment: photoaffinity labeling with residue identification; assay type: binding

| SMILES | Kd [1] | EC50 [2] | EC50 [3] |
| --- | --- | --- | --- |
| NCc1cc(=O)[nH]o1 [muscimol, 3-hydroxy-5-aminomethylisoxazole] | 10 nM |  |  |
| CC(c1ccccc1)n1cncc1C(=O)OCCC1(C)N=N1 (stereo not drawn) [azietomidate, 2-(3-methyl-3H-diaziren-3-yl) ethyl 1-(1-phenylethyl)-1H-imidazole-5-carboxylate] |  | 2700 ± 1000 nM | 2700 ± 1000 nM |
